# Earlier results, collected in PMC10877416 (Translational Oncology, 2024).
# What was measured:
# [1] = tested on: murine primary lymphocytes and Jurkat cells; settings: cited from earlier work
# Method: (§1) To better examine the potency of the PD-L1-derived peptides at the cellular level, competitive assays and stimulation assays were performed. […] These differences in obtained results may be due to the fact that in SPR and ELISA, the peptide is immobilized to the surface of the sensor or the plate, while it is in the solution in cellular assays. Moreover, the immobilization of the peptide may ...
# [2] = tested on: Jurkat E6.1 and HCT-116 cells; settings: co-culture model with activated Jurkat E6.1 and HCT-116 cells; cited from earlier work
# Method: as §1
Substance,Apoptotic signal induced by sPD-L1 [1],IL-2 secretion [2]
GADYKRITVKVN [PL120131],reverses the apoptotic signal,–
"RTMIWYpGAWYKRI [Peptide P1.3, Wang et al. peptide with D-proline in the loop and a tryptophan zipper]",–,has the ability to restore IL-2 secretion
